Laboratory results from PMC11025371, “Alcohols as inhibitors of ammonia oxidizing archaea and bacteria” (FEMS Microbiology Letters, 2023).
Values after ≈ are worked out from the molar mass of the structure shown. “Also recorded” adds a separate entry of the source. Like-named read-outs stand apart in the source and are kept apart here. Marks after values point to notes of the source that are not given here.

Key:
N. europaea [1] = test: Whole-cell activity assay, inhibition of ammonia oxidation (nitrite accumulation from 500 µM NH4Cl); type: cell-based, Nitrosomonas europaea; details: 28°C; for Lowest fully inhibitory concentration (I) for ammonia oxidation: full inhibition = lack of sustained nitrite accumulation; for IC50: nitrite accumulation over 1 h, read-out: Half-maximal inhibitory concentration (IC50) of ammonia oxidation
Method: (§1) Nitrosomonas europaea and ‘Ca. N. franklandus’ C13 cells were harvested at mid-exponential phase (∼800 µM NO2^− accumulated) by filtration onto 0.22 µm pore-size membrane filter (PES, Merck Millipore). Cells were then washed and resuspended in FWM salts (i.e. FWM without added NH4Cl and other medium components as described above) buffered with 10 mM HEPES buffer (pH 7). Cells were incubated at 28°C for N. europaea and 37°C for ‘Ca. N. franklandus’ C13 for ∼1 h until endogenous respiration ceased.
(§2) . Although these alcohols were added at concentrations above their solubility for the consistency of the experimental design, the limit of solubility was considered when evaluating the results. Reactions were initiated by addition of 500 µM NH4Cl or 200 µM NH2OH. Vials containing N. europaea and ‘Ca. Nitrosocosmicus franklandus’ C13 cells were incubated at 28°C and 37°C, respectively. The activity of cultures was followed by monitoring nitrite accumulation over 1 h, measured in 15 min intervals using Griess reagent in a 96-well plate format as previously described (Lehtovirta-Morley et al. [2014]). The final cell concentration in the activity assays was ∼10^7 cells ml^−1 for both N. europaea and ‘Ca. N. franklandus’ C13, which equate to ∼1.2 and 5.55 µg protein ml^−1, respectively. Cell counts were performed as previously described (Oudova-Rivera et al. [2023]). Protein concentrations were determined using a Pierce bicinchoninic acid (BCA) protein assay kit (Thermo Scientific) according to the manufacturer instructions. One-way ANOVA with LSD post-hoc tests were performed using SPSS statistics software version 27 (IBM).
The reaction velocity of ammonia and hydroxylamine oxidation was determined by measuring the rate of nitrite accumulation over time (µM min^−1). The logarithm of the reaction velocity, calculated as a percentage of the non-inhibited control, was plotted against the inhibitor concentration resulting in a linear relationship (Figs. S1 and S2). The half-maximal inhibitory concentration (IC50) was calculated from the slope and y-axis intercept over the linear part of the curve following the formula: […]
(§3) Inhibition by alcohols was tested at a fixed substrate concentration of 500 µM NH4Cl or 200 µM hydroxylamine for both N. europaea and ‘Ca. N. franklandus’ C13. Ammonia and hydroxylamine concentrations were selected based on previously published Km values and activity assays (Suzuki et al. [1974], Martens-Habbena et al. [2009], Oudova-Rivera et al. [2023]). Fully inhibitory concentrations of alcohols were determined experimentally with a series of activity assays, gradually narrowing down the range of alcohol concentrations applied. Full inhibition was defined as a lack of sustained nitrite accumulation, where there was either no nitrite accumulation at all, or where a minor accumulation of nitrite was initially detected but ceased (potentially due to a delayed effect of the inhibitor).

N. europaea [2] = test: Whole-cell activity assay with hydroxylamine as substrate (specificity of AMO inhibition); type: cell-based, Nitrosomonas europaea; details: 200 µM hydroxylamine; for Rate of nitrite accumulation from hydroxylamine oxidation compared to the control: alcohol at its lowest concentration fully inhibitory to ammonia oxidation; for Specificity of inhibition to AMO (effect on hydroxylamine oxidation): fully inhibitory alcohol concentration
Method: as §1
as §2, with “Although” for “. Although”
as §3
(§4) Inhibition of ammonia oxidation was tested using whole-cell activity assays with the concentration of alcohols ranging from 2 to 100 mM and fixed substrate ammonia concentration of 500 µM NH4Cl. […] Because hydroxylamine, the product of ammonia oxidation, is a pathway intermediate downstream of AMO, any inhibitors specific to AMO should not interfere with hydroxylamine oxidation.

‘Ca. N. franklandus’ C13 [3] = test: as above; type: cell-based, ‘Candidatus Nitrosocosmicus franklandus’ C13; details: 200 µM hydroxylamine; for Rate of nitrite accumulation from hydroxylamine oxidation compared to the non-inhibited control: alcohol at its lowest concentration fully inhibitory to ammonia oxidation; for Specificity of inhibition to AMO (effect on hydroxylamine oxidation): fully inhibitory alcohol concentration
Method: as §1
as §2, with “Although” for “. Although”
as §3, §4

physchem = details: water
‘Ca. N. franklandus’ C13 [4] = test: Whole-cell activity assay, inhibition of ammonia oxidation (nitrite accumulation from 500 µM NH4Cl); type: cell-based, ‘Candidatus Nitrosocosmicus franklandus’ C13; details: for Lowest fully inhibitory concentration (I) for ammonia oxidation / IC50: 37°C; for Lowest fully inhibitory concentration (I) for ammonia oxidation: full inhibition = lack of sustained nitrite accumulation; for IC50: nitrite accumulation over 1 h, read-out: Half-maximal inhibitory concentration (IC50) of ammonia oxidation
Method: as §1
as §2, with “Although” for “. Although”
The reaction velocity of ammonia and hydroxylamine oxidation was determined by measuring the rate of nitrite accumulation over time (µM min^−1). […] The half-maximal inhibitory concentration (IC50) was calculated from the slope and y-axis intercept over the linear part of the curve following the formula: […]
as §3, §4

N. europaea [5] = test system: N. europaea; design: method as in Hooper and Terry [1973]; details: ref Hooper and Terry [1973]; cited from earlier work

Structure (SMILES) | Lowest fully inhibitory concentration (I) for ammonia oxidation (N. europaea [1]) | IC50 (N. europaea [1]; Nitrosomonas europaea) [mM] | Rate of nitrite accumulation from hydroxylamine oxidation compared to the control (N. europaea [2]) | Rate of nitrite accumulation from hydroxylamine oxidation compared to the non-inhibited control (‘Ca. N. franklandus’ C13 [3]) | solubility (physchem) [mM] | Lowest fully inhibitory concentration (I) for ammonia oxidation (‘Ca. N. franklandus’ C13 [4]) | IC50 (‘Ca. N. franklandus’ C13 [4]) [mM] | IC50 (N. europaea [1]) [mM] | Specificity of inhibition to AMO (effect on hydroxylamine oxidation) (N. europaea [2]) | Specificity of inhibition to AMO (effect on hydroxylamine oxidation) (‘Ca. N. franklandus’ C13 [3]) | Specificity of inhibition to AMO (effect on hydroxylamine oxidation) (‘Ca. N. franklandus’ C13 [3]; listed as methanol) | inhibition at 2000 µM (‘Ca. N. franklandus’ C13 [4]; 2 mM octanol (limit of solubility)) [%] | Lowest fully inhibitory concentration (I) for ammonia oxidation (‘Ca. N. franklandus’ C13 [4]; listed as octanol) [mM] | Concentration giving maximal inhibition (N. europaea [5]) [M]
CCCCCCCO [Heptanol, 1-heptanol] | 17 mM | 4.5 | no activity detected | 10% ± 0.5% | 17 (≈ 1980 µg/mL) | 17 mM | 3.6 |  |  |  |  |  |  | 
CCCCCO [Pentanol, 1-pentanol] | 100 mM | 5.3 | 27% ± 2.6% | 53% ± 2.8% |  | 20 mM | 3.6 |  |  |  |  |  |  | 
CO [Methanol] | 10 mM |  |  | not affected |  | 8 mM | 0.19 | 0.31 | specific inhibitors of the AMO | specific inhibitors of the AMO | did not interfere with hydroxylamine oxidation |  |  | 
CCCCCCO [Hexanol, 1-hexanol] | 20 mM | 2.2 | 18% ± 5.6% | 13% ± 0.9% |  | 15 mM | 2.4 |  |  |  |  |  |  | 
CCO [Ethanol, ethanol] | 90 mM |  |  |  |  | 80 mM | 7.2 | 20.9 | specific inhibitor; also recorded: specific inhibitors of the AMO | did not interfere with hydroxylamine oxidation; also recorded: specific inhibitor; also recorded: specific inhibitors of the AMO |  |  |  | 
CCCCO [Butanol, 1-butanol] | 100 mM |  | 83% ± 1.8% | 55% ±2.3% |  | 40 mM | 4 | 7.6 |  |  |  |  |  | 
CCCCCCCCO [Octanol, 1-octanol] | 20** mM |  | no activity detected | 33% ± 1.4% | 2 (≈ 260 µg/mL) | 10** mM |  |  |  |  |  | 39 | 10 | 
CC(C)O [2-Propanol, 2-propanol] | 100 mM |  |  |  |  | 40 mM | 26.8 | 32.6 |  |  |  |  |  | 0.13
CCCO [1-Propanol, 1-propanol] | 100 mM |  |  |  |  | 20 mM | 6.2 | 13.6 |  |  |  |  |  | 0.33
